This test has as its target human muscarinic acetylcholine M3 receptor (M3-ACh) (Homo sapiens, UniProt P20309). Kind of test: M3 Receptor Activity Assay: competition binding of [3H]N-methyl scopolamine, SPA format.
The mark [1] stands for this setting: competition binding of [3H]NMS at 0.2 nM to CHO-K1 cell membranes expressing human M3 receptor, 16 hours at room temperature, read-out: pIC50 (converted).

Experimental findings from patent US20090233965A1, “Alkyl Esters Of Cyclic Amino Alcohols With Muscarinic M3 Receptor Antagonist Activity, Useful For Treating E.G. Chronic Bronchial Obstruction, Asthma And Overactive Bladder” (priority 2006, published 2009) are described below.

Where two headings read alike, the source gives them in different places.

Chain of human muscarinic acetylcholine M3 receptor (M3-ACh) (P20309 whole entry): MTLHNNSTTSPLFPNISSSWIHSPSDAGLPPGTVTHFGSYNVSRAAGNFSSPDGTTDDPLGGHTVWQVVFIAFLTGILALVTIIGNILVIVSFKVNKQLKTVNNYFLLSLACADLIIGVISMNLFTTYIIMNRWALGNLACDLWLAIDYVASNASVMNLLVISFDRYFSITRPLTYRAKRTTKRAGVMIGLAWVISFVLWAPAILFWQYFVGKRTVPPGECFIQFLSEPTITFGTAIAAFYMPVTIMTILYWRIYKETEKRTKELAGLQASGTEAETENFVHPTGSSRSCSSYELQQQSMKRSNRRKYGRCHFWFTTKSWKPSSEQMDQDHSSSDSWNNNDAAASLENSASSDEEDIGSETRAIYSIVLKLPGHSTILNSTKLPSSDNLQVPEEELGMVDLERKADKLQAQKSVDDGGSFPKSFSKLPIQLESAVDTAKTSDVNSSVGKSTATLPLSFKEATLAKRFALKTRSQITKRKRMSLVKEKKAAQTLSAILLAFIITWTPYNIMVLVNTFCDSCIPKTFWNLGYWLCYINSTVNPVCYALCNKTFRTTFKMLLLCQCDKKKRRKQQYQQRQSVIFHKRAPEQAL
Protocol: The assay was conducted in a final volume of 200 μL, in the presence of 1% (v/v) dimethyl sulphoxide (DMSO). Total binding of [^3H]NMS was determined in the absence of competing compound and non-specific binding of [3H]NMS was determined in the presence of 1 μM atropine. The plates were incubated for 16 hours at room temperature and then read on Wallac Microbeta™ using a normalised ^3H protocol.

Consider `CC(C(=O)OC1CC[N+](C)(C)CC1)(c1ccccc1)C1CC1` (stereo not drawn) [Example 3, 4-[(2-Cyclopropyl-2-phenylpropanoyl)oxy]-1,1-dimethylpiperidinium iodide], for which the IC50 was 0.398 nM.

`Cc1ccc(C(C)(C(=O)OC2CC[N+](C)(C)CC2)C2CCCC2)s1` (stereo not drawn) [Example 9, 4-{[2-Cyclopentyl-2-(5-methyl-2-thienyl)propanoyl]oxy}-1,1-dimethylpiperidinium iodide]: the IC50 under setting [1] is 0.0794 nM.

For the compound `CC(C(=O)OC1CC[N+](C)(C)CC1)(c1ccc(Cl)cc1)C1CCCC1` (stereo not drawn) [Example 19, 4-{[2-(4-Chlorophenyl)-2-cyclopentylpropanoyl]oxy}-1,1-dimethylpiperidinium iodide], under setting [1], the IC50 is 0.2 nM.
